Source: article PMC9599826, “Selecting Multitarget Peptides for Alzheimer’s Disease” (Biomolecules, 2022)

Test system: human TLR4
Assay: TLR4 activation, HEK-Blue hTLR4 SEAP reporter cells
Type: cell-based
Conditions: 24 h, SEAP production
Description: The HEK-Blue hTLR4 cells were used for these experiments as previously described. Cells were cultured in complete growth medium: phenol red-free DMEM high glucose medium supplemented with 1 mM sodium pyruvate, 10% heat-inactivated FBS, 50 U/mL penicillin, 50 μg/mL streptomycin, 1X Glutamax, 100 μg/mL Normocin, and 1X HEK-Blue Selection. All stimulation assays were performed on cells that were passaged 3 to 15 times. Cells were carefully rinsed once with ice-cold PBS to remove residual FBS. Then, 2 mL of pre-warmed PBS was added, and dishes were incubated at 37 °C for 5 min to promote cell detachment. Cells were fully detached from plates with gentle tapping, collected, and centrifuged at 52× g for 5 min. […] In another set of experiments, we determined the effects of peptide candidates on the activation of hTLR4 by S100A9. […] Secreted alkaline phosphatase (SEAP) production was measured in each challenged well by transferring 20 μL of medium to a fresh 96-well plate containing 200 μL of Quanti-Blue detection medium. […] The Quanti-Blue plate was developed at 37 °C, 5% CO2, for 3 h followed by OD recordings at 630 nm using the Synergy2 microplate reader and Gen5 software. […]
Figure 6 TLR4 activation by S100A9 and effects of peptide candidates. (A) SEAP production was measured in cell medium following 24 h incubation with indicated concentrations of ligands. […]

EC50 (read-out: half maximal effective concentration (EC50) for TLR4 activation): 0.7 nM
Substance: S100A9: Recombinant human calcium binding protein S100A9 (C-terminus 8-His tag); known agonist of TLR4, positive control
concentration giving maximum receptor stimulation: 50 nM
